{"source": "patent US8283353B2", "about": "“Fused ring compound and use thereof” (Takeda Pharmaceutical Company Limited, priority 2009, dated 2012)", "key": {"human AT1 receptor": {"biological_target": "T1, human AT1 receptor (Homo sapiens, UniProt P30556)", "T1 construct": "expressed in transfected cells; membrane fraction", "T1 sequence (P30556 1-359)": "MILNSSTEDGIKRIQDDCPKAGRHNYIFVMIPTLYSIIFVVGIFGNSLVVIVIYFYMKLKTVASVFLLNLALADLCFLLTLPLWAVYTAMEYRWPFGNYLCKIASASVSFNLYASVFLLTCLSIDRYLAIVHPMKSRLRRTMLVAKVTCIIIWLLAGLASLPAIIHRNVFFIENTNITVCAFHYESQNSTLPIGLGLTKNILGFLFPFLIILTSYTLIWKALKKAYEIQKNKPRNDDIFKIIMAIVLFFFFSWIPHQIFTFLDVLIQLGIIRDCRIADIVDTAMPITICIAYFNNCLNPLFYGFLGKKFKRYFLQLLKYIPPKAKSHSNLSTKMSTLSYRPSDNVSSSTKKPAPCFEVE", "assay": "AT1 receptor antagonistic activity: [125I]-angiotensin II binding assay on human AT1 receptor-expressing CHO-K1 cellular membrane fraction", "conditions": "22.5 pM [125I]-angiotensin II, 1 hr room temperature", "outline": "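Competition binding used radiolabelled angiotensin II on stably transfected CHO-K1 membrane fractions in Tris pH 7.4/MgCl2 buffer, optionally containing 0.3 mg/mL fatty acid-free BSA, 1 hr at room temperature. Filtration onto GF/C separated bound tracer, and nonspecific binding was measured with candesartan.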"}, "human PPARγ": {"biological_target": "T2, human PPARγ (Homo sapiens, UniProt P37231)", "T2 construct": "expressed in transfected cells", "T2 sequence (P37231 1-477 isoform P37231-2)": "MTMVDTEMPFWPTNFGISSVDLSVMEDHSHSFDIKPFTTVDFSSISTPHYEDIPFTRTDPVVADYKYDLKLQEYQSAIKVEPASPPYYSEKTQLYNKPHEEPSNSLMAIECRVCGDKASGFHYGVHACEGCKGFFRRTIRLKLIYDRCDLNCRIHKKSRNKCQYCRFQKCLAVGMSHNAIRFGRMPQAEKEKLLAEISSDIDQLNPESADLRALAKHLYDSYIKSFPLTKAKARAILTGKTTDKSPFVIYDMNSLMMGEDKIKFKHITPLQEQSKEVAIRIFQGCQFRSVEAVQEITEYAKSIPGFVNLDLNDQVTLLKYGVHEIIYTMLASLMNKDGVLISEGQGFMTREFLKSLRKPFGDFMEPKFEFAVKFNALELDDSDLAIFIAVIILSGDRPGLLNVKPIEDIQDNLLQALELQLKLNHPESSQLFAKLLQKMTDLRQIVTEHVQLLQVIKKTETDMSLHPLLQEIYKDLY", "T2 sequence (P19793 1-462 partner)": "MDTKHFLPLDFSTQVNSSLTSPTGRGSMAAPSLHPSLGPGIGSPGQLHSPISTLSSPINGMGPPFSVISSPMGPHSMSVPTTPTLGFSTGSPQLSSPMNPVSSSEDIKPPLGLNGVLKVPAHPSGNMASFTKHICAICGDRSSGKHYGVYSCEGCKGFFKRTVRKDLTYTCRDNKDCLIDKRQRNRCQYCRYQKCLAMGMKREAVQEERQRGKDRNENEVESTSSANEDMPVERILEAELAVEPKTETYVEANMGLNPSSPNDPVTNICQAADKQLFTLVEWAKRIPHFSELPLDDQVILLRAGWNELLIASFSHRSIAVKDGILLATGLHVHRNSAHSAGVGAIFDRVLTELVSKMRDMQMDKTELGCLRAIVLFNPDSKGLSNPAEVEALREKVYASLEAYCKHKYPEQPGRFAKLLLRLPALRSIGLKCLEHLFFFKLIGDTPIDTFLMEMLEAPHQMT", "assay": "PPARγ agonistic activity: luciferase reporter assay in PPARγ:RXRα:4ERPP/CHO-K1 cells", "type": "cell-based", "conditions": "CHO-K1, test compound 10^−6 M; luciferase activity of control compound X (1 μM) = 100%, non-administration group = 0%", "outline": "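CHO-K1 cells stably carrying hPPARγ/RXRα and a 4ERPP luciferase reporter, dosed with test compound for 1 day at 37 °C in Ham's F12 with 0.1% fatty acid-free BSA. Luciferase read by luminescence; activity given as % of 1 μM control compound X (100%) versus untreated (0%).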"}}}
{"smiles": "CCCc1c(Cc2ccc(-c3ccccc3-c3noc(=O)[nH]3)cc2F)c(=O)n([C@H]2CC[C@H](OCC(C)(C)O)CC2)c2ccnn12", "note": "[Example 435, 6-{[3-fluoro-2′-(5-oxo-4,5-dihydro-1,2,4-oxadiazol-3-yl)biphenyl-4-yl]methyl}-4-[trans-4-(2-hydroxy-2-methylpropoxy)cyclohexyl]-7-propylpyrazolo[1,5-a]pyrimidin-5(4H)-one]", "values": [{"measurement": "IC50", "setting": "human AT1 receptor", "value": 1.7, "unit": "nM"}, {"measurement": "activation at 1 µM", "setting": "human PPARγ", "value": 30, "unit": "%"}]}
{"smiles": "CCCc1c(Cc2ccc(-c3ccccc3-c3noc(=O)[nH]3)cc2)c(=O)n(C2CCC(=CCO)CC2)c2ncnn12", "note": "(stereo not shown) [Example 191, 4-[4-(2-hydroxyethylidene)cyclohexyl]-6-{[2′-(5-oxo-4,5-dihydro-1,2,4-oxadiazol-3-yl)biphenyl-4-yl]methyl}-7-propyl[1,2,4]triazolo[1,5-a]pyrimidin-5(4H)-one]", "values": [{"measurement": "IC50", "setting": "human AT1 receptor", "value": 1.6, "unit": "nM"}, {"measurement": "activation at 1 µM", "setting": "human PPARγ", "value": 34, "unit": "%"}]}
{"smiles": "CCCc1c(Cc2ccc(-c3ccccc3-c3noc(=O)[nH]3)cc2)c(=O)n(C2CCC(=NOC(C)C)CC2)c2ncnn12", "note": "(stereo not shown) [Example 193, 4-{4-[(1-methylethoxy)imino]cyclohexyl}-6-{[2′-(5-oxo-4,5-dihydro-1,2,4-oxadiazol-3-yl)biphenyl-4-yl]methyl}-7-propyl[1,2,4]triazolo[1,5-a]pyrimidin-5(4H)-one]", "values": [{"measurement": "IC50", "setting": "human AT1 receptor", "value": 2, "unit": "nM"}, {"measurement": "activation at 1 µM", "setting": "human PPARγ", "value": 28, "unit": "%"}]}
{"smiles": "CCCc1c(Cc2ccc(-c3ccccc3-c3noc(=O)[nH]3)cc2)c(=O)n([C@H]2CC[C@@H](OCCO)CC2)c2nc(C)nn12", "note": "[Example 288, 4-[cis-4-(2-hydroxyethoxy)cyclohexyl]-2-methyl-6-{[2′-(5-oxo-4,5-dihydro-1,2,4-oxadiazol-3-yl)biphenyl-4-yl]methyl}-7-propyl[1,2,4]triazolo[1,5-a]pyrimidin-5(4H)-one]", "values": [{"measurement": "IC50", "setting": "human AT1 receptor", "value": 2.7, "unit": "nM"}, {"measurement": "activation at 1 µM", "setting": "human PPARγ", "value": 17, "unit": "%"}]}
{"smiles": "CCCc1c(Cc2ccc(-c3ccccc3-c3noc(=O)[nH]3)cc2)c(=O)n(C(C)CC)c2nc(C)nn12", "note": "(stereo not shown) [Example 68, 2-methyl-4-(1-methylpropyl)-6-{[2′-(5-oxo-4,5-dihydro-1,2,4-oxadiazol-3-yl)biphenyl-4-yl]methyl}-7-propyl[1,2,4]triazolo[1,5-a]pyrimidin-5(4H)-one]", "values": [{"measurement": "IC50", "setting": "human AT1 receptor", "value": 1.7, "unit": "nM"}, {"measurement": "activation at 1 µM", "setting": "human PPARγ", "value": 17, "unit": "%"}]}
{"smiles": "CCCc1c(Cc2ccc(-c3ccccc3-c3noc(=O)[nH]3)cc2)c(=O)n([C@H]2CC[C@H](OCC(C)(O)C(F)(F)F)CC2)c2ncnn12", "note": "(stereo partly drawn) [Example 335, 6-{[2′-(5-oxo-4,5-dihydro-1,2,4-oxadiazol-3-yl)biphenyl-4-yl]methyl}-7-propyl-4-[trans-4-(3,3,3-trifluoro-2-hydroxy-2-methylpropoxy)cyclohexyl][1,2,4]triazolo[1,5-a]pyrimidin-5(4H)-one]", "values": [{"measurement": "IC50", "setting": "human AT1 receptor", "value": 1.9, "unit": "nM"}, {"measurement": "activation at 1 µM", "setting": "human PPARγ", "value": 19, "unit": "%"}]}
{"smiles": "CCCc1c(Cc2ccc(-c3ccccc3-c3noc(=O)[nH]3)cc2)c(=O)n(C2CCC3(CC2)OC(=O)C(C)(C)O3)c2ncnn12", "note": "(stereo not shown) [Example 290, 4-(2,2-dimethyl-3-oxo-1,4-dioxaspiro[4.5]dec-8-yl)-6-{[2′-(5-oxo-4,5-dihydro-1,2,4-oxadiazol-3-yl)biphenyl-4-yl]methyl}-7-propyl[1,2,4]triazolo[1,5-a]pyrimidin-5(4H)-one]", "values": [{"measurement": "IC50", "setting": "human AT1 receptor", "value": 3.2, "unit": "nM"}, {"measurement": "activation at 1 µM", "setting": "human PPARγ", "value": 25, "unit": "%"}]}
{"smiles": "CCCc1c(Cc2ccc(-c3ccccc3-c3noc(=O)[nH]3)cc2)c(=O)n(C2CCC3(CC2)OCCCO3)c2ncnn12", "note": "[Example 286, 4-(1,5-dioxaspiro[5.5]undec-9-yl)-6-{[2′-(5-oxo-4,5-dihydro-1,2,4-oxadiazol-3-yl)biphenyl-4-yl]methyl}-7-propyl[1,2,4]triazolo[1,5-a]pyrimidin-5(4H)-one]", "values": [{"measurement": "IC50", "setting": "human AT1 receptor", "value": 3.1, "unit": "nM"}, {"measurement": "activation at 1 µM", "setting": "human PPARγ", "value": 39, "unit": "%"}]}
{"smiles": "CCCc1c(Cc2ccc(-c3ccccc3-c3noc(=O)[nH]3)cc2)c(=O)n([C@H]2CC[C@H](Oc3ccc(C(C)(C)O)cc3)CC2)c2ncnn12", "note": "[Example 280, 4-{trans-4-[4-(1-hydroxy-1-methylethyl)phenoxy]cyclohexyl}-6-{[2′-(5-oxo-4,5-dihydro-1,2,4-oxadiazol-3-yl)biphenyl-4-yl]methyl}-7-propyl[1,2,4]triazolo[1,5-a]pyrimidin-5(4H)-one]", "values": [{"measurement": "IC50", "setting": "human AT1 receptor", "value": 1.9, "unit": "nM"}, {"measurement": "activation at 1 µM", "setting": "human PPARγ", "value": 16, "unit": "%"}]}
{"smiles": "CCCc1c(Cc2ccc(-c3ccccc3-c3noc(=O)[nH]3)cc2F)c(=O)n([C@H]2CC[C@H](OCC(C)(C)O)CC2)c2nc(C)nn12", "note": "[Example 360, 6-{[3-fluoro-2′-(5-oxo-4,5-dihydro-1,2,4-oxadiazol-3-yl)biphenyl-4-yl]methyl}-4-[trans-4-(2-hydroxy-2-methylpropoxy)cyclohexyl]-2-methyl-7-propyl[1,2,4]triazolo[1,5-a]pyrimidin-5(4H)-one]", "values": [{"measurement": "IC50", "setting": "human AT1 receptor", "value": 1.7, "unit": "nM"}, {"measurement": "activation at 1 µM", "setting": "human PPARγ", "value": 19, "unit": "%"}]}
{"smiles": "CCCc1c(Cc2ccc(-c3ccccc3-c3noc(=O)[nH]3)cc2)c(=O)n([C@H]2CC[C@H](OC(C)C#N)CC2)c2ncnn12", "note": "(stereo partly drawn) [Example 244, 2-({trans-4-[5-oxo-6-{[2′-(5-oxo-4,5-dihydro-1,2,4-oxadiazol-3-yl)biphenyl-4-yl]methyl}-7-propyl[1,2,4]triazolo[1,5-a]pyrimidin-4(5H)-yl]cyclohexyl}oxy)propanenitrile]", "values": [{"measurement": "IC50", "setting": "human AT1 receptor", "value": 2.3, "unit": "nM"}, {"measurement": "activation at 1 µM", "setting": "human PPARγ", "value": 29, "unit": "%"}]}
{"smiles": "CCCc1c(Cc2ccc(-c3ccccc3-c3noc(=O)[nH]3)cc2)c(=O)n([C@H]2CC[C@H](OCC(C)(C)O)CC2)c2c(F)cnn12", "note": "[Example 442, 3-fluoro-4-[trans-4-(2-hydroxy-2-methylpropoxy)cyclohexyl]-6-{[2′-(5-oxo-4,5-dihydro-1,2,4-oxadiazol-3-yl)biphenyl-4-yl]methyl}-7-propylpyrazolo[1,5-a]pyrimidin-5(4H)-one]", "values": [{"measurement": "IC50", "setting": "human AT1 receptor", "value": 2, "unit": "nM"}, {"measurement": "activation at 1 µM", "setting": "human PPARγ", "value": 22, "unit": "%"}]}
{"smiles": "CCCc1c(Cc2ccc(-c3ccccc3-c3noc(=O)[nH]3)cc2F)c(=O)n([C@H]2CC[C@H](OC(CC)C(C)(C)O)CC2)c2ncnn12", "note": "(stereo partly drawn) [Example 355, 4-[trans-4-(1-ethyl-2-hydroxy-2-methylpropoxy)cyclohexyl]-6-{[3-fluoro-2′-(5-oxo-4,5-dihydro-1,2,4-oxadiazol-3-yl)biphenyl-4-yl]methyl}-7-propyl[1,2,4]triazolo[1,5-a]pyrimidin-5(4H)-one]", "values": [{"measurement": "IC50", "setting": "human AT1 receptor", "value": 1.7, "unit": "nM"}, {"measurement": "activation at 1 µM", "setting": "human PPARγ", "value": 25, "unit": "%"}]}
{"smiles": "CCCc1c(Cc2ccc(-c3ccccc3-c3noc(=O)[nH]3)cc2)c(=O)n(CC(=O)C(C)(C)C)c2ncnn12", "note": "[Example 10, 4-(3,3-dimethyl-2-oxobutyl)-6-{[2′-(5-oxo-4,5-dihydro-1,2,4-oxadiazol-3-yl)biphenyl-4-yl]methyl}-7-propyl[1,2,4]triazolo[1,5-a]pyrimidin-5(4H)-one]", "values": [{"measurement": "IC50", "setting": "human AT1 receptor", "value": 1.8, "unit": "nM"}, {"measurement": "activation at 1 µM", "setting": "human PPARγ", "value": 18, "unit": "%"}]}
{"smiles": "CCCc1c(Cc2ccc(-c3ccccc3-c3noc(=O)[nH]3)cc2)c(=O)n([C@H]2CC[C@H](OCC(O)(CF)CF)CC2)c2ncnn12", "note": "[Example 339, 4-{trans-4-[3-fluoro-2-(fluoromethyl)-2-hydroxypropoxy]cyclohexyl}-6-{[2′-(5-oxo-4,5-dihydro-1,2,4-oxadiazol-3-yl)biphenyl-4-yl]methyl}-7-propyl[1,2,4]triazolo[1,5-a]pyrimidin-5(4H)-one]", "values": [{"measurement": "IC50", "setting": "human AT1 receptor", "value": 1.4, "unit": "nM"}, {"measurement": "activation at 1 µM", "setting": "human PPARγ", "value": 27, "unit": "%"}]}
{"smiles": "CCCc1c(Cc2ccc(-c3ccccc3-c3noc(=O)[nH]3)cc2)c(=O)n(C2CCOCC2)c2ncnn12", "note": "[Example 109, 6-{[2′-(5-oxo-4,5-dihydro-1,2,4-oxadiazol-3-yl)biphenyl-4-yl]methyl}-7-propyl-4-(tetrahydro-2H-pyran-4-yl)[1,2,4]triazolo[1,5-a]pyrimidin-5(4H)-one]", "values": [{"measurement": "IC50", "setting": "human AT1 receptor", "value": 2.2, "unit": "nM"}, {"measurement": "activation at 1 µM", "setting": "human PPARγ", "value": 16, "unit": "%"}]}
{"smiles": "CCCc1c(Cc2ccc(-c3ccccc3-c3noc(=O)[nH]3)cc2)c(=O)n(Cc2ccc(F)cc2)c2ncnn12", "note": "[Example 4, 4-(4-fluorobenzyl)-6-{[2′-(5-oxo-4,5-dihydro-1,2,4-oxadiazol-3-yl)biphenyl-4-yl]methyl}-7-propyl[1,2,4]triazolo[1,5-a]pyrimidin-5(4H)-one]", "values": [{"measurement": "IC50", "setting": "human AT1 receptor", "value": 2.6, "unit": "nM"}, {"measurement": "activation at 1 µM", "setting": "human PPARγ", "value": 39, "unit": "%"}]}
